Laboratory results from PMC7278979, “Ellagic Acid Controls Cell Proliferation and Induces Apoptosis in Breast Cancer Cells via Inhibition of Cyclin-Dependent Kinase 6” (International Journal of Molecular Sciences, 2020).

Columns and labels:
MCF-7 cells [1] = assay: Colony formation assay; type: cell-based, human; conditions: MCF-7, IC50 concentration of EA, 10–12 days, vs vehicle control
Protocol: (§1) To perceive the effect of EA treatment on the colonogenic potential of selected cell lines colony formation studies were performed as described previously. Briefly, ~1500–2000 (MCF-7/MDA-MB-231 cells) cells/well were seeded (in triplicates) in each well of a 6-well cell culture plate. The cells were grown in complete cell growth medium for 48 h and incubated with respective IC50 concentrations of EA for 10–12 days, (at 37 °C, in a 5% CO2 incubator). On the other hand, the control cells were incubated with vehicle control (DMSO) under similar experimental conditions. After 10–12 days, the colonies of cells were fixed with 100% methanol and subsequently stained using a 0.4% crystal violet solution (prepared in 25% methanol. Finally, the colonies obtained after staining were photographed, quantified, plotted, and analyzed by comparing with vehicle control.

MDA-MB-231 cells [2] = assay: Colony formation assay; type: cell-based, human; conditions: MDA-MB-231, IC50 concentration of EA, 10–12 days, vs vehicle control
Protocol: as §1

CDK6 [3] = target: T1, CDK6 (Homo sapiens, UniProt Q00534); assay: Isothermal titration calorimetry of EA with CDK6; conditions: ITC, 25 °C, one binding site model; read-out: Ka (binding constant) (converted)
T1 construct: The 981-bp coding region (326 amino acids) was amplified by PCR from plasmid pcDNA containing the CDK6 gene; His-tag; made in house; host or cells: E. coli BL21 (codon+), pET28a+ (NcoI/XhoI)
T1 sequence (Q00534 whole entry): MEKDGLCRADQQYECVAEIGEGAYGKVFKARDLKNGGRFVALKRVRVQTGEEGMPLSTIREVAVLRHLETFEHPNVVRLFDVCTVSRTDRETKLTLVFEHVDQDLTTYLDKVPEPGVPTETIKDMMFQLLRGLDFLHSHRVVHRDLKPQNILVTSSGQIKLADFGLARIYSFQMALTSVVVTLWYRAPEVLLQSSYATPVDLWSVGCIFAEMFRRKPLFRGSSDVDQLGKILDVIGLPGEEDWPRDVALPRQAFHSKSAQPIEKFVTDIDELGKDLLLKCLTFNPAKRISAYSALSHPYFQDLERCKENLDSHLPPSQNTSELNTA
Protocol: ITC measurements were carried out at 25 °C using a VP-ITC microcalorimeter (MicroCal, Inc, GE, MicroCal, USA). The sample cell was filled with 15–20 µM CDK6 and 500 µM EA solution was filled in the syringe. An automated titration was carried out with (including a first false injection of 2 μL) a successive injection of 10 μL EA solution into a CDK6 sample cell at a 260 s interval with 320 rpm stirring speed. For analysis, the heat of dilution of EA in the sample buffer was subtracted from the titration data. MicroCal Origin 8.0 was used to analyze the stoichiometry of binding (n), enthalpy change (ΔH), an association constant (Ka).

CDK6 [4] = target: T1, CDK6; assay: Fluorescence binding (quenching) study with recombinant CDK6; conditions: for Ksv: Stern-Volmer plot; for ΔG°: van 't Hoff equation
Protocol: To study the binding affinity of EA with the recombinant CDK6, a fluorescence binding study was performed. CDK6 was titrated with the EA and corresponding emission spectra were recorded in the range of 300–400 nm after carrying out excitation at 280 nm. The inner filter effect was corrected for the obtained intensities. Fluorescence emission spectra were analyzed by the Stern-Volmer equation to find Stern-Volmer constant (Ksv) and modified Stern-Volmer equation to estimate the binding constant (K) and the number of binding sites (n). Other binding features were estimated by our previously described protocol.
With each reaction, changes in enthalpy and entropy are associated, which are evidence of the type of reaction taking place. Equation (1) (“van ’t Hoff equation”) was employed to calculate the thermodynamic parameters associated with this binding, (1) ΔG°=−RTLnK=ΔH°−TΔS°

CDK6 [5] = assay: CDK6 expression study (immunoblotting); type: cell-based, human; conditions: EA-treated vs vehicle control, immunoblot
Protocol: The cell lysates of EA-treated/untreated MCF-7 and MDA-MB-231 cell lines were prepared using RIPA cell lysis buffer (Thermo Fisher Scientific (USA)) and total protein was isolated. The amount of protein was quantified by a BCA-protein estimation kit. Nearly, 50–60 μg of total protein was subjected for SDS-PAGE, and obtained bands were blotted to polyvinylidene fluoride membrane. The protein of interest was identified using respective primary antibodies and horseradish peroxidase (HRP) conjugated secondary IgG using the luminol method.

MCF-7 cells [6] = assay: Apoptosis assay (Annexin-V staining, flow cytometry); type: cell-based, human; conditions: MCF-7, IC50 concentration of EA, 48 h
CDK6 [7] = target: T1, CDK6; assay: ATPase enzyme inhibition assay (malachite green); type: biochemical; conditions: CDK6 1 µM, ATP 50 µM, 25 °C, 1 h, AAT Bioquest calculator
Protocol: ATPase assay was performed to see the CDK6 inhibitory activity of EA [57]. For a typical kinase reaction, freshly prepared ATP (50 µM) was incubated with CDK6 (1 µM) in a reaction volume of 100 μL and incubated at 25 °C for 1 h. Similar reactions were set up with the increasing concentration of EA. Malachite green (200 μL) was further added to the reaction mixture to stop the reaction followed by incubation of samples at room temperature for 20–25 min for the development of color. The absorbance of the final reaction product was measured spectrophotometrically at 620 nm.

MCF-7 cells [8] = assay: Cell viability MTT assay; type: cell-based; conditions: Homo sapiens, MCF7, MCF-7, 48 h (Figure 8 legend; method says 72 h), mean ± SD n = 3
Protocol: (§2) Cell viabilities of cancer cells with or without EA were evaluated using MTT assay. Briefly, the selected cells (MCF-7 and MDA-MB-231) were seeded in a 96-well (5000–6000 cells/well) culture plate. Overnight grown cells were incubated with EA (0–250 μM) for 72 h in a CO2 incubator, at 37 °C. After a stipulated time of treatment, 20 µL of MTT (from 5 mg/mL stock solution in PBS, pH 7.4) was added to each treatment well of 96-well plate, and plates with MTT solution were incubated additionally for 4–5 h, in the CO2 incubator. Lastly, the formazan were solubilized by adding 100 µL of DMSO to each well. The absorbance (A) of the dissolved purple reaction solution was measured at 570 nm. Absorption readings were converted into percent cell viability and used to estimate 50% inhibitory concentration (IC50) of EA for selected cancer cells.

MDA-MB-231 cells [9] = assay: Cell viability MTT assay; type: cell-based; conditions: Homo sapiens, MDA-MB-231, 48 h (Figure 8 legend; method says 72 h), mean ± SD n = 3
Protocol: as §2

MDA-MB-231 cells [10] = assay: Apoptosis assay (Annexin-V staining, flow cytometry); type: cell-based, human; conditions: MDA-MB-231, IC50 concentration of EA, 48 h
[11] = van 't Hoff plot over 298, 301, 303 K (same value printed at each temperature)

O=c1oc2c(O)c(O)cc3c(=O)oc4c(O)c(O)cc1c4c23 [EA, ellagic acid] was tested. Which number of colonies (MCF-7 cells [1]) did it give?
Its number of colonies is “decreases the number of colonies significantly”.

And the number of colonies (MDA-MB-231 cells [2])?
Its number of colonies is “decreases the number of colonies significantly”.

And the Kd (CDK6 [3])?
The Kd was 39700 nM.

And the “Kq (bimolecular quenching rate constant)” value (CDK6 [4]; 298 K)?
The value was 5.8 10^12 M^−1s^−1.

What about the “TΔS°” value (CDK6 [4]; 298 K) of the same compound?
The value was 84.60 kcal/mol.

What about the “Kq (bimolecular quenching rate constant)” value (CDK6 [4]; 301 K) of the same compound?
Its value is 14.2 10^12 M^−1s^−1.

And the “TΔS°” value (CDK6 [4]; 301 K)?
Its value is 85.45 kcal/mol.

And the “Kq (bimolecular quenching rate constant)” value (CDK6 [4]; 303 K)?
The value was 19.8 10^12 M^−1s^−1.

What about the “TΔS°” value (CDK6 [4]; 303 K) of the same compound?
Its value is 86.02 kcal/mol.

And the Ksv (CDK6 [4]; 298 K)?
The Ksv was 5.8 10^4 M^−1.

And the Ksv (CDK6 [4]; 301 K)?
Its Ksv is 14.2 10^4 M^−1.

What about the Ksv (CDK6 [4]; 303 K) of the same compound?
The Ksv was 19.8 10^4 M^−1.

What about the “binding constant (K)” value (CDK6 [4]; fluorescence quenching, modified Stern-Volmer, 303 K) of the same compound?
The value was 2.6e+07 M⁻¹.

And the Kd (CDK6 [4]; fluorescence quenching, modified Stern-Volmer, 303 K, read-out: binding constant (K))?
Its Kd is 100 nM.

And the “n (number of binding sites)” value (CDK6 [4]; modified Stern-Volmer, 298 K)?
Its value is 1.32.

What about the Kd (CDK6 [4]; modified Stern-Volmer, 298 K, read-out: K (binding constant) (converted)) of the same compound?
The Kd was 345 nM.

And the “n (number of binding sites)” value (CDK6 [4]; modified Stern-Volmer, 301 K)?
The value was 1.16.

What about the Kd (CDK6 [4]; modified Stern-Volmer, 301 K, read-out: K (binding constant) (converted)) of the same compound?
Its Kd is 154 nM.

And the “n (number of binding sites)” value (CDK6 [4]; modified Stern-Volmer, 303 K)?
Its value is 1.41.

And the Kd (CDK6 [4]; modified Stern-Volmer, 303 K, read-out: K (binding constant) (converted))?
The Kd was 38.5 nM.

And the “ΔG°” value (CDK6 [4]; 298 K)?
Its value is -8.73 kcal/mol.

What about the “ΔG°” value (CDK6 [4]; 301 K) of the same compound?
Its value is -9.59 kcal/mol.

And the “ΔG°” value (CDK6 [4]; 303 K)?
The value was -10.16 kcal/mol.

What about the “ΔH°” value (CDK6 [4]; [11]) of the same compound?
The value was 75.8657 kcal/mol.

And the ΔS (CDK6 [4]; [11])?
The ΔS was 283.9087 cal.mol^−1K^−1.

What about the “expression of CDK6” value (CDK6 [5]; MCF-7 cells) of the same compound?
The value was “decreases the expression of CDK6”.

And the “expression of CDK6” value (CDK6 [5]; MDA-MB-231 cells)?
Its value is “decreases the expression of CDK6”.

What about the “Annexin-V positive cells (apoptosis)” value (MCF-7 cells [6]) of the same compound?
Its value is 23.3%.

What about the IC50 (CDK6 [7]) of the same compound?
The IC50 was 3050 nM.

And the IC50 (MCF-7 cells [8])?
The IC50 was 29100 ± 1150 nM.

And the IC50 (MDA-MB-231 cells [9])?
The IC50 was 20500 ± 1220 nM.

And the “Annexin-V positive cells (apoptosis)” value (MDA-MB-231 cells [10])?
Its value is 27.9%.
